Where two headings read alike, the source gives them in different places.
Columns and labels:
[1] = system: C4-2 castrate resistant prostate cancer (CRPC) cells; test: Relative viability after drug dose matrix (CellTiter-Glo, Bliss Independence) in C4-2 cells; type: cell-based; conditions: for effect of the combination of TH588 with a Plk1 inhibitor: each Plk1 inhibitor in combination with TH588, relative viability
Protocol: All cell lines were cultured in a humidified incubator at 37° C. and with 5% CO2, were maintained sub-confluent and used for no more than 20 passages. Media was supplemented with 10% fetal bovine serum (FBS), contained 2 mM glutamine and lacked antibiotics, unless otherwise noted. A549, BT-20, CCD-1112sk, CCD-18co, CFPAC1, HCT 116, HeLa, HT-29, HT55, MCF7, MDA-MB-157, MDA-MB-231, MDA-MB-415, MDA-MB-436, MDA-MB-453, MDA-MB-468, SW48, T98G, U-2 OS, U-87 MG, CAOV3, COV362, and JIMT1 cells were grown in DMEM; 22RV1, AU565, C4-2, CAL33, COL0205,HCC38, HCT-15, KYSE150, LNCaP, LOVO, NCI-H1299, PC-3, ZR-75-1, HCC1419, HCC1569, HCC1954, ZR7530, OVCAR-4, OVCAR8 cells were grown in RPMI 1640; HT1197, HT1376, J82, UMUC3 cells were grown in MEM; OV90, TOV122D, TOV21G cells were grown in 1:1 MCDB105:Medial99 15% FBS; 59M, OAW28, OAW42 cells were grown in Advanced DMEM 0.023 IU/ml insulin; ES2, SKOV3 cells were grown in McCoy's 5A; JHOS2, JHOS4 cells were grown in 1:1 DMEM:HamF12; HUVEC cells were grown in EBM with EGM™-2 BULLETKIT™
(§1) For dose response experiments and experiments that examine synergy as a measure of change in relative viability, cells were grown in 384-well plates in triplicate. The following day the cells were subjected to a drug dose matrix that consisted of increasing concentrations of a Plk inhibitor, increasing concentrations of a microtubule polymerization inhibitor, and all pairwise combinations. Drugs were dissolved in DMSO and diluted in the appropriate cell growth media while maintaining a constant final concentration of DMSO. After five days, relative viability was assessed using […]-GLO™ (Promega) Luminescent Cell Viability Assay according to the manufacturer's recommendations. Luminescence was measured using an […]™ M200 Pro plate reader (Tecan Group Ltd.). […] The dose response plots (for example FIG. 1A) show sensitivity to increasing concentrations of a microtubule polymerization inhibitor in the absence or presence of a constant amount of Plk inhibitor. Bars represent the standard error of the mean. The concentration of Plk inhibitor chosen to presented was based on a ˜20-30% reduction of viability when that drug was used at that dose in isolation. The entire amount of greater-than-additive response observed in the dose matrix is the integrated volume between the observed and expected surfaces generated by the response matrix and is also known as Bliss Volume. Bliss Volume synergy metrics are presented in FIG. 3 as the fractional change in volume between the expected and observed response surfaces.

HCT 116 xenografts = conditions: cited from earlier work
BxPC-3 = conditions: twice-weekly; cited from earlier work
A549 = conditions: twice-weekly; cited from earlier work
[2] = cited from earlier work; for maximum tolerated dose: elderly patients with relapsed/refractory AML
cell mitosis = conditions: read-out: EC50, inhibition of cell mitosis; cited from earlier work
[3] = system: Cdc25C-T96 phosphorylation; conditions: direct readout of PLK1 inhibition; cited from earlier work
[4] = cited from earlier work
[5] = molecular target: several tyrosine kinases and cyclin-dependent kinase 1; conditions: read-out: IC50, tyrosine kinases and Cdk1; cited from earlier work
[6] = system: Bel-7402, MCF-7, and MIA-PaCa cells; conditions: 250 mg/kg; cited from earlier work
BT20 cells = conditions: 200 mg/kg; cited from earlier work
C4-2 CRPC cells [7] = test: Flow cytometry for mitotic cells (phospho-Ser10 Histone H3); type: cell-based; conditions: TH588 with Plk1 inhibitor BI2536, 0 to 48 hours, FIG. 1B
Protocol: (§2) C4-2 CRPC cells were plated in 6-well plates at a density of 300,000 cells per well and a total volume of 3 mls. The next day drugs were diluted in the appropriate growth media while maintaining a constant concentration of DMSO and added to the wells. After the indicated amount of time, cells were harvested by trypsinization. The media, trypsin and PBS wash were collected together to avoid loss of loosely attached or detached cells. Cells were fixed in 4% formaldehyde in PBS for 15 minutes, washed with PBS containing 1% bovine serum albumin (PBS-BSA), and then stored in methanol at −20° C. overnight. Cells were then washed twice in PBS-BSA 0.1% Tween-20, incubated with primary antibodies overnight at 4° C., washed with PBS-BSA 0.1% Tween-20 and incubated for 1 hour with fluorescent-dye conjugated secondary antibodies (diluted 1:200, Alexa Fluor, Molecular Probes) at room temperature for 1 hour. Primary antibodies included anti-phospho-serine 10 histone H3 (clone 3H10, Millipore) and anti-active caspase-3 (clone C92-605, BD Pharmingen). The fixed cells were then washed with PBS-BSA 0.1% Tween-20 and resuspended in PBS containing 1 μg/ml 4,6-diamidino-2-phenylindole (DAPI, Molecular Probes) to stain DNA and analyzed using a BD™ LSRII flow cytometer (Becton Dickinson) and the FLOWJO™ software package. Shown is the average of three replicates±standard error of the mean.

C4-2 CRPC cells [8] = test: Flow cytometry for apoptotic cells (cleaved caspase-3); type: cell-based; conditions: TH588 with Plk1 inhibitor BI2536, 0 to 48 hours, FIG. 1C
Protocol: as §2

[9] = system: C4-2 CRPC xenograft tumors; test: Microwell tumor-implantable device, apoptotic index in xenograft tumors; type: in vivo, mice; conditions: half-dose BI2536 with half-dose TH588 versus monotherapy wells, 24 hours after implantation, p<0.01, FIG. 2B
Protocol: C4-2 CRPC xenograft tumors were grown in four to six week old castrated male NCR nude mice. Five million C4-2 cells in 200 μl serum free media, mixed 1:1 with growth factor reduced […]® (Invitrogen) were injected into the hind flank subcutaneously using a 23 gauge needle. Tumors took four to eight weeks to grow. Microdose drug delivery devices were manufactured, implanted, and analyzed as described by Jonas, O., et al. Science Translational Medicine, 7(284): 284ra57 (2015). […] Tumors were excised 24 hours after device implantation, fixed in 10% formalin for 24 hours, and embedded in paraffin. Sections were stained with cleaved caspase-3 antibody (Cell Signaling Technologies, 9664) followed by detection with horseradish peroxidase conjugated secondary antibody and diaminobenzidine with hematoxylin used as a counterstain. Images were viewed using an EVOS® Cell Imaging System (Invitrogen) microscope, and scored using ImageJ in a blinded manner. Apoptotic index (Al) was calculated as the percentage of cells that were cleaved caspase-3-positive within […] of the reservoir-tissue interface.

[10] = system: cancer cell lines of various origin; test: Combination synergy (Bliss Volume) in cancer cell lines of various origin; type: cell-based; conditions: TH588 with a Plk1 inhibitor; approximately thirty cell lines, in the majority of these; FIG. 3
Protocol: (§3) All cell lines were cultured in a humidified incubator at 37° C. and with 5% CO2, were maintained sub-confluent and used for no more than 20 passages. Media was supplemented with 10% fetal bovine serum (FBS), contained 2 mM glutamine and lacked antibiotics, unless otherwise noted. […]
(§4) For dose response experiments and experiments that examine synergy as a measure of change in relative viability, cells were grown in 384-well plates in triplicate. […] After five days, relative viability was assessed using […]-GLO™ (Promega) Luminescent Cell Viability Assay according to the manufacturer's recommendations. Luminescence was measured using an […]™ M200 Pro plate reader (Tecan Group Ltd.). […]

non-cancer cells = test: Combination synergy (Bliss Volume) in non-cancer cell lines; type: cell-based; conditions: TH588 with a Plk1 inhibitor; FIG. 3
Protocol: as §3, §4

tubulin = test: Microtubule polymerization in vitro; type: biochemical
tumor cells = test: Tumor cell killing by other microtubule polymerization inhibitors with Plk1 inhibitors; type: cell-based; conditions: in combination with Plk1 inhibitors
Protocol: as §1, with “Bliss Volume synergy metrics are presented in FIG. 3 as the fractional change in volume between the expected and observed response surfaces.” left out

mouse xenograft models = conditions: 10 mg/kg and 20 mg/kg on days 1 and 28; cited from earlier work
Plk1 = Plk1 (Homo sapiens, UniProt P53350); conditions: cited from earlier work
Plk1, sequence (P53350 whole entry): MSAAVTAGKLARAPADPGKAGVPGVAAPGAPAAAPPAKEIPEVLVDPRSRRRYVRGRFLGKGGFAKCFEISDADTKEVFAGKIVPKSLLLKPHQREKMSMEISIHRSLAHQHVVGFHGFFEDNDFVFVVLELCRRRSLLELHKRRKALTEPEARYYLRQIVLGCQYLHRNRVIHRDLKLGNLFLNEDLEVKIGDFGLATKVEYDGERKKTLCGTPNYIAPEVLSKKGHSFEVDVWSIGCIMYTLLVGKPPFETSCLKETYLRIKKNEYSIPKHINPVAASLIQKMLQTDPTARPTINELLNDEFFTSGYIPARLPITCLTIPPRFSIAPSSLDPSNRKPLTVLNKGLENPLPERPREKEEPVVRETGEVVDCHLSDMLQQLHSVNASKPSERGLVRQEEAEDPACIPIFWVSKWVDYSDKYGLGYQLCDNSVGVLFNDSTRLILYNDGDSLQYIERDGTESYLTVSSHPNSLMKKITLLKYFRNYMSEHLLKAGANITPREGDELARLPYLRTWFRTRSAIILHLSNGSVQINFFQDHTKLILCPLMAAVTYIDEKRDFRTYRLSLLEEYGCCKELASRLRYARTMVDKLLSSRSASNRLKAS

[11] = system: HT-29 human colorectal tumors; conditions: cited from earlier work

CC[C@@H]1C(=O)N(C)c2cnc(Nc3ccc(C(=O)NC4CCN(C)CC4)cc3OC)nc2N1C1CCCC1 [BI2536]
effect of the combination of TH588 with a Plk1 inhibitor [1]: more than additive
T/C, HCT 116 xenografts (HCT 116 xenografts; 50 mg/kg once per week): 15%
T/C, HCT 116 xenografts (HCT 116 xenografts; 50 mg/kg twice per week): 0.3%
T/C, BxPC-3 model (BxPC-3): 5%
T/C, A549 model (A549): 14%
MTD suggested by other studies ([2]; Frost et al.): 50 to 70 mg
maximum tolerated dose ([2]; day 1 schedule): 350 mg
maximum tolerated dose ([2]; days 1+8 schedule): 200 mg
maximum tolerated dose (MTD) in combination with pemetrexed ([2]; intravenous, NSCLC, day 1 every 3 weeks): 300 mg
dose at which dose-limiting toxicities occurred ([2]; with 500 mg/m^2 pemetrexed, NSCLC, day 1 every 3 weeks, two DLT): 325 mg

MLN0905
EC50 (cell mitosis): 9 nM
EC50 [3]: 29 nM
maximum tolerated dose ([4]; QD (daily) schedule): 6.25 mg/kg
maximum tolerated dose ([4]; QDx3/wk (3-days on/4-days off) schedule): 14.5 mg/kg

COc1cc(OC)c(/C=C/S(=O)(=O)Cc2ccc(OC)c(NCC(=O)[O-])c2)c(OC)c1.[Na+] [ON 01910]
IC50 [5]: 18 to 260 nM
tumor growth in xenograft models [6]: inhibited tumor growth
tumor growth in xenograft model (BT20 cells): inhibition of tumor growth
MTD ([2]; i.v., days 1, 4, 8, 11, 15, and 18 in 28-day cycles, advanced solid tumors): 3,120 mg

Nc1nc(NC2CC2)cc(-c2cccc(Cl)c2Cl)n1 [TH588]
effect of killing cancer cells by the combination of Plk1 inhibitors with TH588, versus each alone ([1]; C4-2 CRPC cells, TH588 with BI2536, five days, Bliss Independence model, FIG. 1A): more than additive
mitotic arrest with the combination (C4-2 CRPC cells [7]): greater than additive
apoptotic cancer cell killing with the combination (C4-2 CRPC cells [8]): greater than additive
effect on tumor cell killing in vivo (cleaved caspase-3 positive cells) [9]: more-than-additive
effect of tumor cell killing using the combination treatment [10]: more than additive
effect of killing by the drug combination in non-cancer cells (non-cancer cells): not more than additive
microtubule polymerization in vitro (tubulin): inhibits microtubule polymerization

C[C@@H](Oc1cc(-n2cnc3ccc(CN4CCN(C)CC4)cc32)sc1C(N)=O)c1ccccc1C(F)(F)F [GSK461364]
effect of the combination of TH588 with a Plk1 inhibitor [1]: more than additive
final recommended phase II dose ([2]; intravenously, schedule A (days 1, 8, and 15 of 28-day cycle)): 225 mg
incidence of venous thrombotic emboli (VTE) ([2]; phase I, advanced solid tumors): 20%

COc1ccc(S(=O)(=O)N(C(C)=O)c2ccccc2/C=C/c2cc[n+]([O-])cc2)cc1 [HMN-214]
MTD ([2]; 5 consecutive days every 4 weeks, based on previous patient treatment load): 18 to 30 mg/m^2
doses at which DLTs were observed ([2]; 5 consecutive days every 4 weeks): 24 to 48 mg/m^2
maximum tolerated dose and recommended dose ([2]; continuous 21-day dosing every 28 days): 8.0 mg/m^2/d
dose with dose-limiting toxicities ([2]; continuous 21-day dosing every 28 days, myalgia/bone pain syndrome and hyperglycemia): 9.9 mg/m^2/d

CC[C@]1(O)C[C@@H]2C[N@@](CCc3c([nH]c4ccccc34)[C@@](C(=O)OC)(c3cc4c(cc3OC)N(C=O)[C@H]3[C@@](O)(C(=O)OC)[C@H](OC(C)=O)[C@]5(CC)C=CCN6CC[C@]43[C@@H]65)C2)C1 [vincristine]
effect when used with Plk1 inhibitors in killing tumor cells (tumor cells): more-than-additive effect

CN1CCN(c2ccc(OC(F)(F)F)c(Nc3ncc4c(n3)-c3c(c(C(N)=O)nn3CCO)CC4)c2)CC1 [onvansertib]
effect of the combination of TH588 with a Plk1 inhibitor [1]: more than additive

COC(=O)Nc1nc2ccc(C(=O)c3cccs3)cc2[nH]1 [nocodazole]
effect when used with Plk1 inhibitors in killing tumor cells (tumor cells): more-than-additive effect

COc1ccc(S(=O)(=O)Nc2ccccc2/C=C/c2cc[n+]([O-])cc2)cc1 [HMN-176]
antitumor activity in mouse xenograft models (mouse xenograft models): potent antitumor activity

COc1cc(C(=O)N[C@H]2CC[C@H](N3CCN(C)CC3)CC2)ccc1Nc1ncc2c(n1)N(C1CCCC1)CC1(CC1)C(=O)N2C [Plogosertib]
IC50 (Plk1): 3 nM

COc1cc(C(=O)NC2CCN(C)CC2)ccc1Nc1ncc2c(n1)N(C1CCCC1)CC(F)(F)C(=O)N2C [RO3280]
antitumor activity when dosed more frequently ([11]; dosed more frequently): complete tumor regression
tumor growth inhibition ([11]; once weekly at 40 mg/kg): 72%

— patent US20230263783A1, “CANCER TREATMENT BY COMBINED INHIBITION OF POLO-LIKE KINASE AND MICROTUBULE POLYMERIZATION” (Massachusetts Institute of Technology, priority 2022, published 2023)
